Measured values taken from PubChem BioAssay AID1963959 (Molecular Pharmacology Branch, DTP, NCI, 2024).

System: T-47D spheroids with HUVEC/MSC, viability
Test: Anticancer human tumor T-47D cell line growth inhibition [PI3K];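 note: spheroids exposed to agents for seven days before reading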;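 for viability, T/C: percent of DMSO vehicle control luminescence so 100% = untreated growth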
Details: for viability, T/C: stronger effect = lower value
How it was run: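 We assembled tumor spheroids that included a stromal compartment of HUVEC and MSCs, then exposed them to targeted agents alone and together with PI3K pathway inhibitors. Concentration series descended by half-log from clinically achievable Cmax levels. Viability served as the endpoint.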

[1] = curve of first compound, second compound 0.0316 µM
[2] = curve of first compound, second compound 0.1 µM
[3] = curve of first compound, second compound 0.316 µM
[4] = curve of first compound, second compound 1 µM
[5] = second compound 0.0316 µM, first compound 0.0316 µM
[6] = second compound 0.0316 µM, first compound 0.1 µM
[7] = second compound 0.0316 µM, first compound 0.316 µM
[8] = second compound 0.0316 µM, first compound 1 µM
[9] = second compound 0.0316 µM, first compound 3.16 µM
[10] = second compound 0.0316 µM, first compound 10 µM
[11] = second compound 0.1 µM, first compound 0.0316 µM
[12] = second compound 0.1 µM, first compound 0.1 µM
[13] = second compound 0.1 µM, first compound 0.316 µM
[14] = second compound 0.1 µM, first compound 1 µM
[15] = second compound 0.1 µM, first compound 3.16 µM
[16] = second compound 0.1 µM, first compound 10 µM
[17] = second compound 0.316 µM, first compound 0.0316 µM
[18] = second compound 0.316 µM, first compound 0.1 µM
[19] = second compound 0.316 µM, first compound 0.316 µM
[20] = second compound 0.316 µM, first compound 1 µM
[21] = second compound 0.316 µM, first compound 3.16 µM
[22] = second compound 0.316 µM, first compound 10 µM
[23] = second compound 1 µM, first compound 0.0316 µM
[24] = second compound 1 µM, first compound 0.1 µM
[25] = second compound 1 µM, first compound 0.316 µM
[26] = second compound 1 µM, first compound 1 µM
[27] = second compound 1 µM, first compound 3.16 µM
[28] = second compound 1 µM, first compound 10 µM
[29] = curve of first compound, second compound 0.00316 µM
[30] = curve of first compound, second compound 0.01 µM
[31] = second compound 0.00316 µM, first compound 0.0316 µM
[32] = second compound 0.00316 µM, first compound 0.1 µM
[33] = second compound 0.00316 µM, first compound 0.316 µM
[34] = second compound 0.00316 µM, first compound 1 µM
[35] = second compound 0.00316 µM, first compound 3.16 µM
[36] = second compound 0.00316 µM, first compound 10 µM
[37] = second compound 0.01 µM, first compound 0.0316 µM
[38] = second compound 0.01 µM, first compound 0.1 µM
[39] = second compound 0.01 µM, first compound 0.316 µM
[40] = second compound 0.01 µM, first compound 1 µM
[41] = second compound 0.01 µM, first compound 3.16 µM
[42] = second compound 0.01 µM, first compound 10 µM
[43] = compound alone, run of 04/25/2023

CCCS(=O)(=O)Nc1ccc(F)c(C(=O)c2c[nH]c3ncc(-c4ccc(Cl)cc4)cc23)c1F + CC(Nc1ncnc2nc[nH]c12)c1cc2cccc(Cl)c2c(=O)n1-c1ccccc1
IC50 [1]: > 10 µM
IC50 [2]: > 10 µM
IC50 [3]: 8.46 µM
IC50 [4]: > 10 µM
IC50 (curve of first compound, second compound 3.16 µM): 9.93 µM
IC50 (curve of first compound, second compound 10 µM): 9.51 µM
viability, T/C [5]: 114%
viability, T/C [6]: 98.7%
viability, T/C [7]: 84.7%
viability, T/C [8]: 98.4%
viability, T/C [9]: 88.6%
viability, T/C [10]: 53%
viability, T/C [11]: 84.5%
viability, T/C [12]: 96.1%
viability, T/C [13]: 105%
viability, T/C [14]: 84.8%
viability, T/C [15]: 104%
viability, T/C [16]: 52.1%
viability, T/C [17]: 107%
viability, T/C [18]: 87.7%
viability, T/C [19]: 109%
viability, T/C [20]: 83.8%
viability, T/C [21]: 92%
viability, T/C [22]: 42.9%
viability, T/C [23]: 97.2%
viability, T/C [24]: 106%
viability, T/C [25]: 89.2%
viability, T/C [26]: 112%
viability, T/C [27]: 85.6%
viability, T/C [28]: 50.3%
viability, T/C (second compound 3.16 µM, first compound 0.0316 µM): 85.5%
viability, T/C (second compound 3.16 µM, first compound 0.1 µM): 104%
viability, T/C (second compound 3.16 µM, first compound 0.316 µM): 73.6%
viability, T/C (second compound 3.16 µM, first compound 1 µM): 84.8%
viability, T/C (second compound 3.16 µM, first compound 3.16 µM): 85.3%
viability, T/C (second compound 3.16 µM, first compound 10 µM): 49.8%
viability, T/C (second compound 10 µM, first compound 0.0316 µM): 84.7%
viability, T/C (second compound 10 µM, first compound 0.1 µM): 82.8%
viability, T/C (second compound 10 µM, first compound 0.316 µM): 92.2%
viability, T/C (second compound 10 µM, first compound 1 µM): 72.7%
viability, T/C (second compound 10 µM, first compound 3.16 µM): 74.7%
viability, T/C (second compound 10 µM, first compound 10 µM): 48.2%

CC1(C)CCC(CN2CCN(c3ccc(C(=O)NS(=O)(=O)c4ccc(NCC5CCOCC5)c([N+](=O)[O-])c4)c(Oc4cnc5[nH]ccc5c4)c3)CC2)=C(c2ccc(Cl)cc2)C1 + CC(Nc1ccc2c(c1)OCCn1cc(N3C(=O)OCC3C(F)F)nc1-2)C(N)=O
IC50 [29]: > 10 µM
IC50 [30]: > 10 µM
IC50 [1]: > 10 µM
IC50 [2]: > 10 µM
IC50 [3]: > 10 µM
IC50 [4]: 4.16 µM
viability, T/C [31]: 101%
viability, T/C [32]: 97.2%
viability, T/C [33]: 98.9%
viability, T/C [34]: 89.8%
viability, T/C [35]: 76.3%
viability, T/C [36]: 78.9%
viability, T/C [37]: 90.1%
viability, T/C [38]: 81.5%
viability, T/C [39]: 93.7%
viability, T/C [40]: 91.6%
viability, T/C [41]: 79.5%
viability, T/C [42]: 69.7%
viability, T/C [5]: 87.3%
viability, T/C [6]: 94%
viability, T/C [7]: 103%
viability, T/C [8]: 75.5%
viability, T/C [9]: 87%
viability, T/C [10]: 65.5%
viability, T/C [11]: 77.6%
viability, T/C [12]: 76.3%
viability, T/C [13]: 89.6%
viability, T/C [14]: 87.5%
viability, T/C [15]: 89.5%
viability, T/C [16]: 53.4%
viability, T/C [17]: 65.5%
viability, T/C [18]: 79.2%
viability, T/C [19]: 69.7%
viability, T/C [20]: 61.4%
viability, T/C [21]: 72.9%
viability, T/C [22]: 52.1%
viability, T/C [23]: 52.9%
viability, T/C [24]: 54.5%
viability, T/C [25]: 61%
viability, T/C [26]: 57.2%
viability, T/C [27]: 53%
viability, T/C [28]: 38.3%

COc1c(OCCCN2CCOCC2)ccc2c3n(c(=NC(=O)c4cnc(N)nc4)nc12)CCN3
viability, T/C (compound 0.01 µM): 99.1% [middle of 8 runs]
viability, T/C (compound 0.0316 µM): 70.4% [middle of 8 runs]
viability, T/C (compound 0.1 µM): 45.4% [middle of 8 runs]
viability, T/C (compound 0.316 µM): 20.5% [middle of 8 runs]
viability, T/C (compound 1 µM): 7.09% [middle of 8 runs]
IC50 [43]: 86.9 nM [middle of 8 runs]

CCCS(=O)(=O)Nc1ccc(F)c(C(=O)c2c[nH]c3ncc(-c4ccc(Cl)cc4)cc23)c1F + CC(Nc1ccc2c(c1)OCCn1cc(N3C(=O)OCC3C(F)F)nc1-2)C(N)=O
IC50 [29]: 9.16 µM
IC50 [30]: 9.58 µM
IC50 [1]: 8.53 µM
IC50 [2]: 6.95 µM
IC50 [3]: 5.04 µM
IC50 [4]: 3.21 µM
viability, T/C [31]: 99.3%
viability, T/C [32]: 87.8%
viability, T/C [33]: 108%
viability, T/C [34]: 79.2%
viability, T/C [35]: 103%
viability, T/C [36]: 46.3%
viability, T/C [37]: 99%
viability, T/C [38]: 89.1%
viability, T/C [39]: 98.5%
viability, T/C [40]: 70.7%
viability, T/C [41]: 87.8%
viability, T/C [42]: 47%
viability, T/C [5]: 80.3%
viability, T/C [6]: 90.2%
viability, T/C [7]: 102%
viability, T/C [8]: 97.3%
viability, T/C [9]: 98.7%
viability, T/C [10]: 43%
viability, T/C [11]: 83.2%
viability, T/C [12]: 82.8%
viability, T/C [13]: 97.7%
viability, T/C [14]: 91.3%
viability, T/C [15]: 74.2%
viability, T/C [16]: 38.9%
viability, T/C [17]: 69.3%
viability, T/C [18]: 79.3%
viability, T/C [19]: 66.9%
viability, T/C [20]: 70.9%
viability, T/C [21]: 55.8%
viability, T/C [22]: 41.4%
viability, T/C [23]: 48.5%
viability, T/C [24]: 55.1%
viability, T/C [25]: 69.4%
viability, T/C [26]: 51.5%
viability, T/C [27]: 49.1%
viability, T/C [28]: 35.5%

CC(Nc1ncnc2nc[nH]c12)c1cc2cccc(Cl)c2c(=O)n1-c1ccccc1 (stereo not given)
viability, T/C (compound 0.0316 µM): 96.2% [middle of 8 runs]
viability, T/C (compound 0.316 µM): 96.2% [middle of 8 runs]
IC50 [43]: > 10 µM
